Experimental data published in paper PMC5454376, “Molecular mechanism of Gαi activation by non-GPCR proteins with a Gα-Binding and Activating motif” (Nature Communications, 2017).

Test system: Gαi3 N269D
Assay: Co-immunoprecipitation in HEK293T cells, Gαi3 N269D versus WT
Assay type: binding
Details: HEK293T lysates, FLAG-tagged Gαi3 N269D vs WT; GST-Ric-8A 1 μg added
Description: HEK293T cells (American Type Culture Collection) were grown at 37 °C in DMEM supplemented with 10% FBS, 100 U ml^−1 penicillin, 100 μg ml^−1 streptomycin, 1% L-glutamine and 5% CO2. DNA plasmids encoding for C-terminally 3xFLAG-tagged Gαi3 (ref. [25]) or an empty plasmid (p3xFLAG-CMV-14) were transfected using the calcium phosphate method in 10 cm dishes. The DNA amount for the Gαi3 N269D plasmid was threefold (12 μg) of that for Gαi3 WT (4 μg) to equalize their expression levels. Cells were collected 48 h after transfection by gently scrapping in PBS, centrifuged and resuspended in 1 ml of lysis buffer (20 mM HEPES (pH 7.2), 5 mM Mg(CH3COO)2, 125 mM K(CH3COO), 0.4% (v:v) Triton X-100, 1 mM DTT, 10 mM β-glycerophosphate and 0.5 mM Na3VO4 supplemented with a protease inhibitor cocktail (Sigma; catalogue #S8830)) and cleared (14,000g for 10 min) before use. Lysates were supplemented with 1 μg of purified GST-Ric-8A (12–491)[22] and 2 μg of mouse anti-FLAG antibody (Sigma F1804), and incubated for 4 h at 4 °C with rotation. BSA-blocked Protein G agarose beads (Thermo-Scientific) were added and tubes incubated for additional 90 min at 4 °C. Beads were washed four times (4.3 mM Na2HPO4, 1.4 mM KH2PO4, pH 7.4, 137 mM NaCl, 2.7 mM KCl, 0.1% (v/v) Tween 20, 10 mm MgCl2, 5 mm EDTA and 1 mm DTT) and immunoprecipitated proteins eluted by boiling in Laemmli sample buffer. […]

“Full-length GIV: full-length GIV from HEK293T cells, 1,870 amino acids” was tested. Which “co-immunoprecipitation with nucleotide-free-mimicking mutant compared with WT” value did it give?
Its value is “as efficiently as with the wild-type (WT) protein”.
